Data taken from PMC6095626, “Screening of the Pathogen Box for inhibitors with dual efficacy against Giardia lamblia and Cryptosporidium parvum” (PLoS Neglected Tropical Diseases, 2018).
Read-outs that look alike come from different tables or passages of the source.

Legend:
[1] = system: G. lamblia trophozoites (luciferase expressing, WBC6); assay: microbe, parasite or virus in culture; format: cell-based, Giardia lamblia; settings: for Giardia (16 uM) Mean % inhibition: initial Pathogen Box screen, single concentration 16 µM, inhibition compared to DMSO wells; for EC50: read-out: G. lamblia EC50
Outline: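 Luciferase-expressing WBC6 trophozoites plated at 250,000 cells/mL, compounds added 1:1, incubated anaerobically (GasPak bags) at 37 °C for 24 h; viability read by bioluminescence, with duplicate plates counted on a MOXI Z cell counter. Metronidazole control serially diluted 1:2 from 40 μM.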

[2] = system: C. parvum (UGA1 Nluc expressing strain in HCT-8 cells); assay: microbe, parasite or virus in culture; format: cell-based, Cryptosporidium parvum; settings: for Crypto (10 uM) Mean % inhibition: initial Pathogen Box screen, single concentration 10 µM, inhibition compared to DMSO wells
Outline: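 HCT-8 monolayers grown 48 h to 90–100% confluence, treated with compound at 10 μM or serial dilutions, then infected with bleach-treated UGA1 Nluc C. parvum oocysts.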

[3] = system: HepG2 cells; assay: Cytotoxicity against HepG2 cells, AlamarBlue viability assay, 48 hours; format: cell-based, human; settings: read-out: HepG2 CC50 (this study)
Excerpt: (§1) Mammalian cell cytotoxicity assay data performed on HepG2 (human hepatocellular carcinoma) cells and described as CC20 or CC50 values are provided in supporting documentation that accompanied the Pathogen Box for approximately three quarters of the 400 compounds. However, no details of the assay conditions or parameters were provided. In this study, selected compounds were further tested for cytotoxicity against HepG2 cells as previously described. Briefly, cells were exposed to two-fold serial dilutions of compounds for 48 hours and cytotoxicity was assessed using the AlamarBlue® viability assay (Thermo Fisher Scientific, Waltham, MA). Each dilution was assayed in quadruplicate and concentrations causing 50% growth inhibition (CC50) were calculated by non-linear regression using GraphPad Prism 7 software (GraphPad Software, San Diego, CA).

[4] = system: HepG2 cells; settings: read-out: HepG2 CC50 (literature values), cited from earlier work
[5] = system: G. lamblia; settings: read-out: G. lamblia EC50 (literature), cited from earlier work
[6] = system: C. parvum; settings: cited from earlier work
[7] = Cytotoxicity against HepG2 cells, AlamarBlue viability assay, 48 hours; format: cell-based, human; settings: human, HepG2 cells, read-out: HepG2 CC50 (this study)
Excerpt: as §1

[8] = system: HCT-8 host cells; assay: Toxicity to HCT-8 host cells seen in the C. parvum assay; format: cell-based; settings: no reliable C. parvum EC50 could be determined
Description: Growth inhibition and EC50 determination assays were performed using UGA1 Nluc expressing C. parvum strain in HCT-8 cells (ATCC^©, Manassas, VA) as previously described. HCT-8 cells were inoculated onto 96-well plates and allowed to grow for 48 hours to 90–100% confluence and then treated with single concentration (10 μM) or serially diluted compounds prior to oocyst infection. C. parvum oocysts were incubated for 10 minutes in 10% bleach at room temperature and then washed with DPBS. One thousand oocysts per well were applied to the 96 well plates with RPMI-1640 medium supplemented with 10% horse serum and 1% penicillin/streptomycin at the same time as compound addition and incubated for 48 hours. The cell monolayers were lysed for 1 hour before adding Nano-Glo® luciferase reagent (Promega, Madison, WI), and measuring relative luminescence units (RLU) in an EnVision Plate Reader (Perkin Elmer, Waltham, MA). Several parameters, including reproducibility and reliability, were previously evaluated to optimize this assay for low and high-throughput (HTP) screening of small molecule compounds against C. parvum. EC50 values were calculated using Prism 7 software (GraphPad Software, San Diego, CA).

[9] = system: G. lamblia trophozoites; assay: G. lamblia growth inhibition counted with MOXI Z Mini Automated Cell Counter; format: cell-based; settings: Giardia duodenalis, 24 h, read-out: G. lamblia EC50 by MOXI coulter counter
Description: Preliminary effective concentration that causes 50% growth inhibition (EC50) assays were performed on the luciferase expressing and wild-type (control) G. lamblia cells to establish a correlation between manually counted cells and the bioluminescent signal read out. Trophozoites were harvested by chilling cultures on ice for 30 minutes and plated by adding 150 μL per well at a concentration of 250,000 cells/mL. Metronidazole (Sigma, St. Louis, MO) was used as a control and was serially diluted 1:2 from 40 μM to 0.04 μM and 150 μL was added to the 150 μL of the G. lamblia trophozoites. Plates were covered in plastic low-evaporation lids, sealed in individual anaerobic BD GasPak Bio-Bags (Becton Dickinson, San Jose, CA) and incubated at 37 °C for 24 hours. Plates were then iced for 30 minutes and 250 μL of resuspended cells were transferred to a solid white 96-well plate and 50 μL of 10 mg/mL D-luciferin was added to a final reaction concentration of 1.67 mg/mL. Plates were incubated on a plate shaker at 37 °C for 30 minutes and read on an EnVision Plate Reader. A duplicate plate was concurrently set up and assayed using a MOXI Z Mini Automated Cell Counter Kit (Orflo, Ketchum, ID). Results obtained from the bioluminescence assay and the MOXI counter data were compared to evaluate their correlation to each another. […]

[10] = luciferase expressing G. lamblia trophozoites, 24 hours, D-luciferin bioluminescence read-out
[11] = IOWA strain (48h), read-out: C. parvum EC50 (literature)

Structure (SMILES) | Giardia (16 uM) Mean % inhibition [1] [%] | EC50 [1, 10] [nM] | Crypto (10 uM) Mean % inhibition [2] [%] | CC50 [3] [nM] | CC50 [4] [µM] | EC50 [6, 11] [nM] | EC50 ([1]; Giardia duodenalis, 24 h) [nM] | other results
CC(=O)OCC1OC([S-])C(OC(C)=O)C(OC(C)=O)C1OC(C)=O.CCP(CC)CC.[Au+] (centres unmarked) [MMV688978, Auranofin, reference compound] | 98 | 3740 ± 460 | 93 | 500 | 4.5 | 2000 |  | EC50 ([2]; Nluc C. parvum in HCT-8 cells, 48 hours, read-out: C. parvum EC50): 3.34 ± 2.7 µM; EC50 ([5]; WB strain (48h)): 4 to 6 µM
CC(C)/N=c1\cc2n(-c3ccc(Cl)cc3)c3ccccc3nc-2cc1Nc1ccc(Cl)cc1 [MMV687800, Clofazimine, reference compound] |  |  |  |  | > 20 | 15 | 1790 ± 230 | inhibition at 16 µM ([1]; Giardia duodenalis, read-out: Giardia (16 uM) Mean % inhibition): 98%; EC50 ([2]; Cryptosporidium parvum, HCT-8, 48 h, read-out: C. parvum EC50, Nluc C. parvum in HCT-8 cells, 48 hours): 3.3 µM; inhibition at 10 µM ([2]; Cryptosporidium parvum, HCT-8, read-out: Crypto (10 uM) Mean % inhibition): 82%; EC50 ([2]; read-out: C. parvum EC50, Nluc C. parvum in HCT-8 cells, 48 hours): 3.33 ± 1.2 µM; CC50 at 48 h [7]: 26.4 µM
O=C(Nc1ccc(C(F)(F)F)c(C(F)(F)F)c1)c1cc(Cl)ccc1O [MMV687807] | 97 | 510 ± 60 | 90 | < 5000 |  |  |  | Toxicity to HCT-8 host cells in the C. parvum assay [8]: too toxic to the HCT-8 host cells; CC50 ([4]; ref Pathogen_Box_Activity_Biological_Data_ Structure & Smiles (https://www.pathogenbox.org/about-pathogen-box/composition)): 0.7 µM
CCOc1ccc2cc(-c3nn(CC4CCN(C)CC4)c4ncnc(N)c34)ccc2c1 [MMV688854, reference compound] | 9 |  |  |  |  |  |  | C. parvum cell growth inhibition in the initial screen ([2]; 10 μM, 48 hours): 79%; EC50 ([6]; same strain of Nluc C. parvum, read-out: C. parvum EC50 (previously shown)): 2700 nM
Cc1ncc([N+](=O)[O-])n1CCO [metronidazole, Metronidazole] |  |  |  |  |  |  | 2240 | EC50 [9]: 1060 nM; EC50 [5]: ~5 µM; EC50 ([5]; reference strain WB (48h)): 8.65 µM
